The values that follow come from US10689331B2, “IDO inhibitors” (Bristol-Myers Squibb Company, priority 2015, dated 2020).

Bounds are passed on as bounds.

A word on the IC50: it is the concentration at which inhibition is half-maximal.

The target in the experiment is T1, human IDO1 (Homo sapiens, UniProt P14902).
T1 construct: expressed in transfected cells
T1 sequence (P14902 whole entry): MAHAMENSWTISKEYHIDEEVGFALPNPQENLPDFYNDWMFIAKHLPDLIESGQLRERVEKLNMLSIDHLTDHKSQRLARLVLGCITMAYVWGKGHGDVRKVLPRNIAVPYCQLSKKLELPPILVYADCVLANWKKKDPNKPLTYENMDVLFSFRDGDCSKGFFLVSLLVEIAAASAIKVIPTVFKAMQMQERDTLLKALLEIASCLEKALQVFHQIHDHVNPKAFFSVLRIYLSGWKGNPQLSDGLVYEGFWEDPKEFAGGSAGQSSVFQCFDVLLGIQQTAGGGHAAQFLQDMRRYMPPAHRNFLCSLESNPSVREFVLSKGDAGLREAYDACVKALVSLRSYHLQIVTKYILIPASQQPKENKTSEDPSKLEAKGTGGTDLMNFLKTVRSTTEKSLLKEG
Nature of the experiment: HEK Human IDO-1 inhibition assay (kynurenine readout, Ehrlich reagent, absorbance 490 nm). It counts as cell-based. The settings on record: human IDO1/HEK293 cells, incubated 20 hours with compound; 500 nM reference standard = 100% inhibition. Here is the method:
HEK293 cells were transfected with a pCDNA-based mammalian expression vector harboring human IDO1 cDNA (NM 002164.2) by electroporation. They were cultured in medium (DMEM with 10% FBS) containing 1 mg/ml G418 for two weeks. Clones of HEK293 cells that stably expressed human IDO1 protein were selected and expanded for IDO inhibition assay.
The human IDO1/HEK293 cells were seeded at 10,000 cells per 50 uL per well with RPMI/phenol red free media contains 10% FBS in a 384-well black wall clear bottom tissue culture plate (Matrix Technologies LLC) 100 nL of certain concentration of compound was then added to each well using ECHO liquid handling systems. The cells were incubated for 20 hours in 37° C. incubator with 5% CO2.
The compound treatments were stopped by adding Trichloroacetic Acid (Sigma-Aldrich) to a final concentration at 0.2%. The cell plate was further incubated at 50° C. for 30 minute. The equal volume supernatant (20 uL) and 0.2% (w/v) Ehrlich reagent (4-dimethylaminobenzaldehyde, Sigma-Aldrich) in glacial acetic acid were mixed in a new clear bottom 384-well plate. This plate was then incubated at room temperature for 30 minute. The absorbance at 490 nm was measured on Envision plate reader. Compound IC50 values were calculated using the counts of 500 nM of a reference standard treatment as one hundred percent inhibition, and counts of no compound but DMSO treatment as zero percent inhibition.
Turning to `CC(C)CN(c1ccc(OC(C)C(=O)O)cc1NC(=O)Nc1ccc(Cl)cc1F)C1CCCCC1` (single isomer, unassigned) [Example 61-2, 2-(3-(3-(4-chloro-2-fluorophenyl)ureido)-4-(cyclo-hexyl(isobutyl)amino)phenoxy)propanoic acid], the IC50 was under 5 nM.
The figure for `COc1ccc(NC(=O)Nc2cc(OC(C)C(=O)O)ccc2N(CC(C)C)C2CCCCC2)c(F)c1` (single isomer, unassigned) [Example 64-1, 2-(4-(cyclohexyl(isobutyl)amino)-3-(3-(2-fluoro-4-methoxyphenyl)ureido)phenoxy)propanoic acid] is under 100 nM; for `COc1ccc(NC(=O)Nc2cc(OC(C)C(=O)O)ccc2N(CC(C)C)C2CCCCC2)c(F)c1` (single isomer, unassigned) [Example 64-2, 2-(4-(cyclohexyl(isobutyl)amino)-3-(3-(2-fluoro-4-methoxyphenyl)ureido)phenoxy)propanoic acid] it is under 5 nM; for `Cc1ccc(NC(=O)Nc2cc(OC(C)C(=O)O)ccc2N(CC(C)C)C2CCCCC2)c(F)c1` (single isomer, unassigned) [Example 65-1, 2-(4-(cyclohexyl(isobutyl)amino)-3-(3-(2-fluoro-4-methylphenyl)ureido)phenoxy)propanoic acid] it is under 100 nM.
With `Cc1ccc(NC(=O)Nc2cc(OC(C)C(=O)O)ccc2N(CC(C)C)C2CCCCC2)c(F)c1` (single isomer, unassigned) [Example 65-2, 2-(4-(cyclohexyl(isobutyl)amino)-3-(3-(2-fluoro-4-methylphenyl)ureido)phenoxy)propanoic acid], the IC50 is under 5 nM.
The figure for `CC(C)CN(c1ccc(OC(C)C(=O)O)cc1NC(=O)Nc1ccc(C#N)cc1)C1CCCCC1` (single isomer, unassigned) [Example 66-1, 2-(3-(3-(4-cyanophenyl)ureido)-4-(cyclohexyl(isobutyl)amino)phenoxy)propanoic acid] is under 100 nM; for `CC(C)CN(c1ccc(OC(C)C(=O)O)cc1NC(=O)Nc1ccc(C#N)cc1)C1CCCCC1` (single isomer, unassigned) [Example 66-2, 2-(3-(3-(4-cyanophenyl)ureido)-4-(cyclohexyl(isobutyl)amino)phenoxy)propanoic acid] it is under 5 nM.
`CCOC(=O)C(C)Oc1ccc(N(CC(C)C)C2CCCCC2)c(NC(=O)Nc2ccc(Cl)cc2F)c1` (single isomer, unassigned) [Example 67-1, ethyl 2-(3-(3-(4-chloro-2-fluorophenyl)ureido)-4-(cyclohexyl(isobutyl)amino)phenoxy)propanoate]: the IC50 is under 100 nM.
The figure for `CCOC(=O)C(C)Oc1ccc(N(CC(C)C)C2CCCCC2)c(NC(=O)Nc2ccc(Cl)cc2F)c1` (single isomer, unassigned) [Example 67-2, ethyl 2-(3-(3-(4-chloro-2-fluorophenyl)ureido)-4-(cyclohexyl(isobutyl)amino)phenoxy)propanoate] is under 5 nM; for `CCC(Oc1ccc(N(CC(C)C)C2CCCCC2)c(NC(=O)Nc2ccc(Cl)cc2F)c1)C(=O)O` (single isomer, unassigned) [Example 80-1, 2-(3-(3-(4-chloro-2-fluorophenyl)ureido)-4-(cyclohexyl(isobutyl)amino)phenoxy)butanoic acid] it is under 5 nM; for `CCC(Oc1ccc(N(CC(C)C)C2CCCCC2)c(NC(=O)Nc2ccc(Cl)cc2F)c1)C(=O)O` (single isomer, unassigned) [Example 80-2, 2-(3-(3-(4-chloro-2-fluorophenyl)ureido)-4-(cyclohexyl(isobutyl)amino)phenoxy)butanoic acid] it is under 5 nM.
The figure for `CCC(Oc1ccc(N(CC(C)C)C2CCCCC2)c(NC(=O)Nc2ccccc2F)c1)C(=O)O` (single isomer, unassigned) [Example 81-1, 2-(4-(cyclohexyl(isobutyl)amino)-3-(3-(2-fluorophenyl)ureido)phenoxy)butanoic acid] is under 5 nM; for `CCC(Oc1ccc(N(CC(C)C)C2CCCCC2)c(NC(=O)Nc2ccccc2F)c1)C(=O)O` (single isomer, unassigned) [Example 81-2, 2-(4-(cyclohexyl(isobutyl)amino)-3-(3-(2-fluorophenyl)ureido)phenoxy)butanoic acid] it is under 5 nM; for `CCC(Oc1ccc(N(CC(C)C)C2CCCCC2)c(NC(=O)Nc2ccc(C)cc2)c1)C(=O)O` (single isomer, unassigned) [Example 82-1, 2-(4-(cyclohexyl(isobutyl)amino)-3-(3-(p-tolyl)ureido)phenoxy)butanoic acid] it is under 5 nM.
On to `CCC(Oc1ccc(N(CC(C)C)C2CCCCC2)c(NC(=O)Nc2ccc(C)cc2)c1)C(=O)O` (single isomer, unassigned) [Example 82-2, 2-(4-(cyclohexyl(isobutyl)amino)-3-(3-(p-tolyl)ureido)phenoxy)butanoic acid], for which the IC50 is under 100 nM.
Take `CCCC(Oc1ccc(N(CC(C)C)C2CCCCC2)c(NC(=O)Nc2ccc(Cl)cc2F)c1)C(=O)O` (single isomer, unassigned) [Example 85-1, 2-(3-(3-(4-chloro-2-fluorophenyl)ureido)-4-(cyclohexyl(isobutyl)amino)phenoxy)pentanoic acid]: the IC50 was under 5 nM.
The figure for `CCCC(Oc1ccc(N(CC(C)C)C2CCCCC2)c(NC(=O)Nc2ccc(Cl)cc2F)c1)C(=O)O` (single isomer, unassigned) [Example 85-2, 2-(3-(3-(4-chloro-2-fluorophenyl)ureido)-4-(cyclohexyl(isobutyl)amino)phenoxy)pentanoic acid] is under 5 nM; for `CCCC(Oc1ccc(N(CC(C)C)C2CCCCC2)c(NC(=O)Nc2ccc(C)cc2)c1)C(=O)O` (single isomer, unassigned) [Example 86-1, 2-(4-(cyclohexyl(isobutyl)amino)-3-(3-(p-tolyl)ureido)phenoxy)pentanoic acid] it is under 100 nM.
The figure for `CCCC(Oc1ccc(N(CC(C)C)C2CCCCC2)c(NC(=O)Nc2ccc(C)cc2)c1)C(=O)O` (single isomer, unassigned) [Example 86-2, 2-(4-(cyclohexyl(isobutyl)amino)-3-(3-(p-tolyl)ureido)phenoxy)pentanoic acid] is under 5 nM; for `CCCC(Oc1ccc(N(CC(C)C)C2CCCCC2)c(NC(=O)Nc2ccccc2F)c1)C(=O)O` (single isomer, unassigned) [Example 87-1, 2-(4-(cyclohexyl(isobutyl)amino)-3-(3-(2-fluorophenyl)ureido)phenoxy)pentanoic acid] it is under 5 nM.
As for `CCCC(Oc1ccc(N(CC(C)C)C2CCCCC2)c(NC(=O)Nc2ccccc2F)c1)C(=O)O` (single isomer, unassigned) [Example 87-2, 2-(4-(cyclohexyl(isobutyl)amino)-3-(3-(2-fluorophenyl)ureido)phenoxy)pentanoic acid], the IC50 was under 5 nM.
For `CCCC(Oc1ccc(N(CC(C)C)C2CCCCC2)c(NC(=O)Nc2cncnc2)c1)C(=O)O` (single isomer, unassigned) [Example 88-1, 2-(4-(cyclohexyl(isobutyl)amino)-3-(3-(pyrimidin-5-yl)ureido)phenoxy)pentanoic acid] the value was at least 100 nM.
